# Patent US9050353B2, “Use of icariin and epimedium flavonoids containing icariin to treat diseases associated with myelin sheath lesion” (Xuanwu Hospital of Capital Medical University, priority 2010, dated 2015)
# Tests used:
# Format in all cases: in vivo
# Settings in all cases: positive control drug, dose not given
# Malondialdehyde (MDA) = assay: MDA content of cerebral cortex, biochemical kit, EAE rats
# Experimental: (§1) Preparation of rat model and administration: experimental autoimmune encephalomyelitis (EAE) model is an important tool for studying various human demyelinating diseases of nervous system. In the example, the preparation of EAE rat model was performed by multipoint immunizing female Lewis rats subcutaneously at tail root with a homogenate of spinal cord and cerebral gray matter of Guinea pig as well as complete Freund's adjuvant after emulsification. They were intragastrically administered with Epimedium flavanoids for 3 weeks.
# Experimental objective: the lipid peroxidation between oxygen free radicals and unsaturated fatty acids of cell membranes and organelle membranes results in the damage, degradation, denaturation and dysfunction of membrane phospholipids. Malondialdehyde (MDA) is a metabolic product of lipid peroxidation, and the increase of MDA indicates the enhancement of lipid peroxidation, which may lead to damage of nerve cells and myelin sheath. Superoxide dismutase (SOD) can scavenge superoxide anions and is an important antioxidase in vivo. In this experiment, SOD activity and MDA content of brain tissues in EAE rat model were measured by biochemistry method, and the effects of Epimedium flavanoids on changes thereof were observed. […]
# [1] = tested on: myelin basic protein (MBP); assay: Spinal cord MBP by Western blot, EAE mice
# Experimental: (§2) Preparation of mice model and administration: experimental autoimmune encephalomyelitis (EAE) mice model is an important tool for studying various human demyelinating diseases of nervous system. In the present experiment, the preparation of EAE mice model was performed by immunizing female C57BL/6J mice with myelin sheath oligodendroglial cell surface glycoprotein MOG35-55. That is, the mice were subcutaneously injected at dorsal part of spinal column with 0.2 mL of MOG35-55 antigen elixir, and 0.2 ml of bordetella pertussis solution was intraperitoneally injected at the time of immunization injection and 48 h thereafter, respectively. Icariin was intragastrically administered after the last injection of bordetella pertussis solution, for consecutive 3 weeks.
# (§3) Experimental objective: myelin sheath is formed with prominences of oligodendroglial cells. CNPase, myelin basic protein (MBP) are marker proteins of mature oligodendroglial cells. The present experiment was to observe the expression of CNPase and MBP to represent the content of oligodendroglial cells in spinal cord of EAE model mice by Western blot method; and to study the effects of icariin on it.
# (§4) Experimental method: the mice were anesthetized and sacrificed, fresh spinal cord was taken on ice, total protein was extracted by cleavage on ice, to prepare Western blot sample, added separately with CNPase, MBP primary antibodies and incubated, added with corresponding secondary antibodies, ECL colorated, Kodak film exposed. Pictures were analyzed with Image J software and standardized with β-actin.
# [2] = tested on: Brain-derived neurotrophic factor (BDNF); assay: BDNF of spinal cord lumbar intumescentia by immunohistochemical method, EAE rats
# Experimental: as §1
# Experimental objective: neurotrophic factors are important substances for constituting nerve regeneration microenvironment. Brain-derived neurotrophic factor (BDNF) is an important neurotrophic factor, can promote the regeneration and plerosis of myelin sheath. In this experiment, BDNF content of spinal cord lumbar intumescentia in EAE rat model was measured by immunohistochemical method, and the effects of Epimedium flavanoids on the content was observed.
# Experimental method: the rats were anesthetized with 10% chloral hydrate, fixed by perfusion of 4% paraformaldehyde, spinal cord tissues were taken for frozen section. Incubated with BDNF primary antibody, added with corresponding secondary antibody and third antibody, DAB colorated, observed under microscope, and pictures were analyzed using Image Pro plus5.0 software.
# IL-1β = IL-1β of spinal cord lumbar intumescentia by immunohistochemical method, EAE rats
# Experimental: as §1
# Experimental objective: interleukin 1β (IL-1β) is an important inflammatory cytokines, and has promoting effects on inflammatory reactions. This experiment used immunohistochemical method to measure the content of IL-1β in spinal cord lumbar intumescentia of EAE model group rat, and observed the effects of Epimedium flavanoids on the content.
# Experimental method: rats were anesthetized with 10% chloral hydrate, fixed by perfusion of 4% paraformaldehyde, spinal cord tissue was taken for making frozen section. Incubated with IL-1β primary antibody, added with corresponding secondary antibody, third antibody, DAB developed, observed under microscope. Pictures were analyzed by Image Pro plus 5.0 software.
# IL-6 = assay: Serum IL-6 content by ELISA, EAE mice
# Experimental: as §2
# Experimental objective: interleukin-1 (IL-1) and IL-6 are important inflammatory cytokines, and have promoting effects on inflammatory reactions. This experiment used enzyme linked immunosorbent assay (ELISA) to measure contents of IL-1 and IL-6 in serums of EAE mice model, and the effects of icariin on these contents were observed.
# Experimental method: mice were anesthetized with pentobarbital sodium, blood sample was taken from abdominal aorta, stood at room temperature for 2 h, centrifuged at 3000 rpm for 20 min, and supernatant was taken, stored at −80° C. for use. The operation was performed strictly according to the steps of specification of ELISA kit. Optical density was measured with ELIASA at 450 nm. The corresponding contents of IL-1 and IL-6 were calculated with the measured OD values on standard curves.
# CNPase [3] = assay: Spinal cord CNPase by Western blot, EAE mice
# Experimental: as §2, §3, §4
# CNPase [4] = assay: Cerebral cortex CNPase content by Western blot, EAE rats
# Experimental: as §1
# Experimental objective: myelin sheath is formed with prominences of oligodendroglial cells. […] In this experiment, CNPase content of cerebral cortex in EAE rat model was measured by Western blot method, CNPase content of spinal cord lumbar intumescentia was measured by immunohistochemical method; and the effects of Epimedium flavanoids on these contents were observed.
# Experimental method: rats were anesthetized and sacrificed, cerebral cortex was taken, total protein was extracted by ice cleavage for making Western blot sample, added with CNPase primary antibody and incubated, added with corresponding secondary antibody, ECL colorated, Kodak film exposed. Pictures were analyzed by Image J software and standardized with β-actin (as internal reference).
structure (smiles),measurement,setting,value
CC(=O)OCC(=O)[C@@]1(O)CC[C@H]2[C@@H]3CCC4=CC(=O)C=C[C@]4(C)[C@H]3C(=O)C[C@@]21C [prednisone acetate],MDA content,Malondialdehyde (MDA),1.03 ± 0.09 nmol/mg protein
same,MBP/actin Integration grey level,[1],1.05 ± 0.11
same,integrated optical density of BDNF positive cell,[2],3.64 ± 0.23 ×10^5
same,total area of BDNF positive cell,[2],9.43 ± 1.12 ×10^5
same,IL-1β Accumulative optical density,IL-1β,115.5 ± 8.6 ×10^3
same,IL-1β Positive cell number,IL-1β,672 ± 48
same,IL-6 content,IL-6,0.121 ± 0.010 pg/mL
same,CNPase/actin Integration grey level,CNPase [3],1.20 ± 0.01
same,CNPase/actin Integration grey level,CNPase [4],1.33 ± 0.06
